Key:
Glucocorticoid receptor [1] = target: T1, Glucocorticoid receptor (Homo sapiens, UniProt P04150); test: Displacement of GS-red from human glucocorticoid receptor by fluorescent polarization assay
T1 sequence (P04150 whole entry): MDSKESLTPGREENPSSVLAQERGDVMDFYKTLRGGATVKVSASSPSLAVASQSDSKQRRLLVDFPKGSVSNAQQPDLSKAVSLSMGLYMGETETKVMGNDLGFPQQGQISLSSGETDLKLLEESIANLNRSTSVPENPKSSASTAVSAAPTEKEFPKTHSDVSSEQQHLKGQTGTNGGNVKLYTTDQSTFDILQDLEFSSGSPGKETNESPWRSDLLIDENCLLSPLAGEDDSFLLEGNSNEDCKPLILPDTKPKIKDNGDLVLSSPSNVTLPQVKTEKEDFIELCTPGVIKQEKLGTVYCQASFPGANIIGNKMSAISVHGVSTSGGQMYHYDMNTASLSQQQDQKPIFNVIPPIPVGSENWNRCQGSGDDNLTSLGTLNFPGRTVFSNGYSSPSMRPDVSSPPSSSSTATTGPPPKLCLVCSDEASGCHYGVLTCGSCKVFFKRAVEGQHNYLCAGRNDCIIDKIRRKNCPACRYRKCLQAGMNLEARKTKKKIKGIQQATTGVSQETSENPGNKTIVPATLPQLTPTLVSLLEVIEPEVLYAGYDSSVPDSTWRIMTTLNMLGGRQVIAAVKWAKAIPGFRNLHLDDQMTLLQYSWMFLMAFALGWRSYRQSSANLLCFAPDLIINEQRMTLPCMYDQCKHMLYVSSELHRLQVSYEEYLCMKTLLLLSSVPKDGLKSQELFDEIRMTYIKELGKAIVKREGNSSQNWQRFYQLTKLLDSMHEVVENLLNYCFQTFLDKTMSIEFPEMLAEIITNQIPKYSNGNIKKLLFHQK

Androgen receptor = target: T2, Androgen receptor (Homo sapiens, UniProt P10275); test: Binding affinity to androgen receptor
T2 sequence (P10275 whole entry): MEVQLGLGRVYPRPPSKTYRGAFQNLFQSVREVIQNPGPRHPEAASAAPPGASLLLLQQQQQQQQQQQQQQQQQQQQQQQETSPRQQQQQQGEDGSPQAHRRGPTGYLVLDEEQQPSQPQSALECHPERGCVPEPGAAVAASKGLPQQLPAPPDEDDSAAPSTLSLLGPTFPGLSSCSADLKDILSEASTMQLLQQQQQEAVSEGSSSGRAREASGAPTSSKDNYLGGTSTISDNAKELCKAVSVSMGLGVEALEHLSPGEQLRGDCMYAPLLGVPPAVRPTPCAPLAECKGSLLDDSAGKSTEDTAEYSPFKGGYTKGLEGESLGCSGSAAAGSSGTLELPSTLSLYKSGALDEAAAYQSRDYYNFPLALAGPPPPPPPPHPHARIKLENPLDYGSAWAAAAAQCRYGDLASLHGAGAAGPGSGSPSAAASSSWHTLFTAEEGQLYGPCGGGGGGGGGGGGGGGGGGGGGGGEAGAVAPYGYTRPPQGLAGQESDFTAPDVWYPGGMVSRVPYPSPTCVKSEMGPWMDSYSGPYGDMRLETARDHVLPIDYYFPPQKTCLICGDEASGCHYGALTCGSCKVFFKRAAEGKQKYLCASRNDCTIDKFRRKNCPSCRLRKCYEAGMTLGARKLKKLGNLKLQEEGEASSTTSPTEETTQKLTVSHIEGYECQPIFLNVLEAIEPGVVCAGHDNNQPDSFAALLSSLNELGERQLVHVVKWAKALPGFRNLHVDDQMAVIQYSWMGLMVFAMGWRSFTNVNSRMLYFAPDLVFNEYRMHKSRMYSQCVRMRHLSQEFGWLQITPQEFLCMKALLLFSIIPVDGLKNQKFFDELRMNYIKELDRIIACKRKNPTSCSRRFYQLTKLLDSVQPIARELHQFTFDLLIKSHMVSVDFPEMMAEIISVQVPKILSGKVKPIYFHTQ

Glucocorticoid receptor [2] = target: T1, Glucocorticoid receptor; test: Transrepression activity at glucocorticoid receptor expressed in human A549 cells assessed as inhibition of PMA-induced AP1 activity after 6 hrs by luciferase reporter gene assay; format: cell-based
Glucocorticoid receptor [3] = target: T1, Glucocorticoid receptor; test: Transactivation of GAL-4 tagged glucocorticoid receptor ligand binding domain expressed in human HeLa cells assessed as NP1 activation by luciferase reporter gene assay; format: cell-based
Glucocorticoid receptor [4] = target: T1, Glucocorticoid receptor; test: Transrepression activity at glucocorticoid receptor expressed in human A549 cells assessed as inhibition of IL-1-beta-induced NF-kappaB dependent E-selection promoter activation after 6 hrs by luciferase reporter gene based ELAM assay; format: cell-based
Progesterone receptor = target: T3, Progesterone receptor (Homo sapiens, UniProt P06401); test: Binding affinity to progesterone receptor
T3 sequence (P06401 whole entry): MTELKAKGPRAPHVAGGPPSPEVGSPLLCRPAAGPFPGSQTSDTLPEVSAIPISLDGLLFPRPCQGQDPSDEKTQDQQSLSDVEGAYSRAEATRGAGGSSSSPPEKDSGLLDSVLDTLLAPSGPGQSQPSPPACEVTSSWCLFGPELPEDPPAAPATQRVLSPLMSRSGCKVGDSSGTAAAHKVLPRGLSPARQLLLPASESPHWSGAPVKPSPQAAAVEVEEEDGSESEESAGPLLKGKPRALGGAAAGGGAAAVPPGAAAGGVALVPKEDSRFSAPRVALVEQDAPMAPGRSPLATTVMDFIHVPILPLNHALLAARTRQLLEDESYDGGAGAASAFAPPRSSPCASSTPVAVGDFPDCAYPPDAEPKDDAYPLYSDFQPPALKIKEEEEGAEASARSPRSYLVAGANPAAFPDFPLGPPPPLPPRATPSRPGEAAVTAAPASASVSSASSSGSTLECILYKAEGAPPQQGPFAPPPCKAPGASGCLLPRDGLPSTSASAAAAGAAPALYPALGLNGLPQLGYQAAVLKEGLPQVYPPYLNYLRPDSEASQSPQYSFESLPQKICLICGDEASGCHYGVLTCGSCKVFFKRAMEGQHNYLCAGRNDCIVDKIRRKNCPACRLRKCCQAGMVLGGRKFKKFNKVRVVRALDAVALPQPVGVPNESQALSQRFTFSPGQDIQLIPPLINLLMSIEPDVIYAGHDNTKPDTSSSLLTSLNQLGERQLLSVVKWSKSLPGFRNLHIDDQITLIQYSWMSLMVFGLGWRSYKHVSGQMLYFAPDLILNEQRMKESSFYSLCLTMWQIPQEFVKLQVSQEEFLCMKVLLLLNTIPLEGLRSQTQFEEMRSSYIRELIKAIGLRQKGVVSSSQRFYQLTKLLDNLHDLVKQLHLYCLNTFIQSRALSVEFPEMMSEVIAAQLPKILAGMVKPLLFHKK

Compound	Ki (Glucocorticoid receptor [1]) [nM]	IC50 (Androgen receptor) [nM]	EC50 (Glucocorticoid receptor [2]) [nM]	EC50 (Glucocorticoid receptor [3]) [nM]	EC50 (Glucocorticoid receptor [4]) [nM]	Ki (Progesterone receptor) [nM]	EC50 (Glucocorticoid receptor [2]; a549) [nM]	EC50 (Glucocorticoid receptor [4]; a549) [nM]
C[C@]12Cc3cnn(-c4ccc(F)cc4)c3C=C1CCC[C@@H]2[C@](C)(O)c1ccsc1	0.8	> 4000						
C[C@]12Cc3cnn(-c4ccc(F)cc4)c3C=C1CCC[C@@H]2[C@](C)(O)c1ccc(F)cc1	2.5	> 4000						
CCCC[C@@](C)(O)[C@H]1CCCC2=Cc3c(-c4ccc(F)cc4)ncn3C[C@@]21C	7.9	> 4000	34	1130	130			
Cc1cccc([C@@](C)(O)[C@H]2CCCC3=Cc4c(-c5ccc(F)cc5)ncn4C[C@@]32C)c1	2.5	> 4000	9.5	1130	99			
C[C@]12Cn3cnc(-c4ccc(F)cc4)c3C=C1CCC[C@@H]2[C@](C)(O)c1cccc(C#N)c1	1	> 4000	18	> 10000	31			
CO[C@](C)(c1cccs1)[C@H]1CCCC2=Cc3c(-c4ccc(F)cc4)ncn3C[C@@]21C	33	> 4000	> 5000		> 5000			
C[C@]12Cn3cnc(-c4ccc(F)cc4)c3C=C1CCC[C@@H]2[C@](C)(O)c1ccncc1		> 4000						
CC(C)C[C@@](C)(O)[C@H]1CCCC2=Cc3c(-c4ccc(F)cc4)ncn3C[C@@]21C	9	> 4000	132	876	133			
C[C@]12Cn3cnc(-c4ccc(F)cc4)c3C=C1CCC[C@@H]2[C@](C)(O)CCc1ccccc1		> 4000						
C[C@]12Cn3cnc(-c4ccc(F)cc4)c3C=C1CCC[C@@H]2[C@](C)(O)c1ccsc1	1	> 4000	5	> 10000	37			
C[C@]12Cn3cnc(-c4ccc(F)cc4)c3C=C1CCC[C@@H]2[C@](C)(O)C(F)(F)F	5.2	> 4000	31	> 10000				
C[C@]12Cn3cnc(-c4ccc(F)cc4)c3C=C1CCC[C@@H]2[C@](C)(O)Cc1ccc(F)cc1	11	> 4000	227	760	121			
C[C@]12Cn3cnc(-c4ccc(F)cc4)c3C=C1CCC[C@@H]2[C@](C)(O)c1nccs1	3	> 4000	110	572	92			
C[C@]12Cn3cnc(-c4ccc(F)cc4)c3C=C1CCC[C@@H]2[C@](C)(O)c1ccccc1	1	> 4000	16	> 5000	61			
C[C@]12Cn3cnc(-c4ccc(F)cc4)c3C=C1CCC[C@@H]2[C@](C)(O)C1CCCCC1	3.1	> 4000	2	470	33			
Cc1ccc([C@@](C)(O)[C@H]2CCCC3=Cc4c(-c5ccc(F)cc5)ncn4C[C@@]32C)s1	1.5	> 4000	28	272	18			

Compound	Ki (Glucocorticoid receptor [1]) [nM]	IC50 (Androgen receptor) [nM]	EC50 (Glucocorticoid receptor [2]) [nM]	EC50 (Glucocorticoid receptor [3]) [nM]	EC50 (Glucocorticoid receptor [4]) [nM]	Ki (Progesterone receptor) [nM]	EC50 (Glucocorticoid receptor [2]; a549) [nM]	EC50 (Glucocorticoid receptor [4]; a549) [nM]
C[C@]12Cn3cnc(-c4ccc(F)cc4)c3C=C1CCC[C@@H]2[C@](C)(O)c1ccc(Cl)s1	4	> 4000	11	253	11	409		
C[C@]12Cn3cnc(-c4ccc(F)cc4)c3C=C1CCC[C@@H]2[C@](C)(O)C1CCOCC1		> 4000						
C[C@]12Cc3cnn(-c4ccc(F)cc4)c3C=C1CCCC2[C@@H](O)c1csc2ccccc12 (stereo not given in full)	1.8		1.8					
C[C@]12Cn3cnc(-c4ccc(F)cc4)c3C=C1CCC[C@@H]2[C@](C)(O)c1ccc(C#N)cc1	2.5	> 4000	59	> 10000	105			
Cc1ccccc1[C@@](C)(O)[C@H]1CCCC2=Cc3c(-c4ccc(F)cc4)ncn3C[C@@]21C	2	> 4000	25	920	31			
C[C@]12Cn3cnc(-c4ccc(F)cc4)c3C=C1CCC[C@@H]2[C@](C)(O)c1ccc(F)cc1	2	> 4000	20		44			
C[C@]12Cn3cnc(-c4ccc(F)cc4)c3C=C1CCC[C@@H]2[C@](C)(O)c1cccnc1		> 4000						
C=CC[C@H](O)C1CCCC2=Cc3c(cnn3-c3ccc(F)cc3)C[C@@]21C (stereo not given in full)	3.9	> 4000	9.3					
C[C@]12Cn3cnc(-c4ccc(F)cc4)c3C=C1CCC[C@@H]2[C@](C)(O)c1ccccn1		> 4000						
C[C@]12Cn3cnc(-c4ccc(F)cc4)c3C=C1CCC[C@@H]2[C@](C)(O)c1cccs1	2	> 4000	52		41	230		
C[C@]12Cn3cnc(-c4ccc(F)cc4)c3C=C1CCC[C@@H]2[C@](C)(O)C1CC1	2.6	> 4000	37	> 5000	49			
C=CCC(O)C1CCCC2=Cc3c(-c4ccc(F)cc4)ncn3CC21C (single isomer, unassigned; diastereomer 1)	8		> 2500		> 5000			
C=CCC(O)C1CCCC2=Cc3c(-c4ccc(F)cc4)ncn3CC21C (single isomer, unassigned; diastereomer 2)	9						> 2500	> 5000
C[C@]12Cn3cnc(-c4ccc(F)cc4)c3C=C1CCC[C@@H]2[C@H](O)c1ccc(F)cc1 (stereo in doubt; 18)	25		> 5000		> 5000			
C[C@]12Cn3cnc(-c4ccc(F)cc4)c3C=C1CCC[C@@H]2[C@H](O)c1ccc(F)cc1 (stereo in doubt; 19)	21		272		243	451		
